Test results from PMC6449605, “Pyrophosphate Stimulates the Phosphate-Sodium Symporter of Trypanosoma brucei Acidocalcisomes and Saccharomyces cerevisiae Vacuoles” (mSphere, 2019).
Blank lines part the entries; values can stand above or below the compound they belong to.

Experiments:
Pho91p = target: T1, Pho91p (Saccharomyces cerevisiae, UniProt P27514); experiment: two-electrode voltage clamp, Xenopus oocytes; type: cell-based; conditions: ND96, room temperature
T1 construct: gene PHO91; full length, cRNA expressed in Xenopus laevis oocytes
T1 sequence (P27514 1-894): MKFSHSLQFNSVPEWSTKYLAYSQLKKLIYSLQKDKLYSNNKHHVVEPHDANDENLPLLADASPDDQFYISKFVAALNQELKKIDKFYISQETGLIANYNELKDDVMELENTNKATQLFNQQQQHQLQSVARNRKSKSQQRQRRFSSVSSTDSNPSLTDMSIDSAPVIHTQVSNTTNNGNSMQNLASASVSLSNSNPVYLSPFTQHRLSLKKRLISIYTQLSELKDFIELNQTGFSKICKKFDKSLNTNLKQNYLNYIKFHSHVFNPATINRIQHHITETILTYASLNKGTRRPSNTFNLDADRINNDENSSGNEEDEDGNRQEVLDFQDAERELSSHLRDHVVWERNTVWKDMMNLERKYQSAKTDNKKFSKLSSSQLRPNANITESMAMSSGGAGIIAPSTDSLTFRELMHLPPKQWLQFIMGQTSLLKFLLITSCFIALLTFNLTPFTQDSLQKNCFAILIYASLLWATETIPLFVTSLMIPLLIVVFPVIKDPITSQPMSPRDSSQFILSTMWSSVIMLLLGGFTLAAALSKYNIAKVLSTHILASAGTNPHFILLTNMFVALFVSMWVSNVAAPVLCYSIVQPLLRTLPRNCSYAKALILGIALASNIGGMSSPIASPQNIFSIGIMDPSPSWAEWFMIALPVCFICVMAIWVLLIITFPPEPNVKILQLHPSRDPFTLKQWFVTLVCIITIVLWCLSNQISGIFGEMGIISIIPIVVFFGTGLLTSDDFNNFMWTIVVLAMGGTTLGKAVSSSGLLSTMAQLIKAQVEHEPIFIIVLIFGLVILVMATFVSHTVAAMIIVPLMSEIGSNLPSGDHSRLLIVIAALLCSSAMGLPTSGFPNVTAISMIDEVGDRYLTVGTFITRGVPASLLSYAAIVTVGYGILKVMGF

TbPho91 = target: T2, TbPho91 (Trypanosoma brucei, UniProt Q383G2); experiment: two-electrode voltage clamp, Xenopus oocytes; type: cell-based; conditions: activator, modulates 10 mM Pi-evoked current; ND96 pH 7.5; room temperature
T2 construct: full length, cRNA expressed in Xenopus laevis oocytes (also in giant vacuoles of pho91-delta yeast)
T2 sequence (Q383G2 1-728): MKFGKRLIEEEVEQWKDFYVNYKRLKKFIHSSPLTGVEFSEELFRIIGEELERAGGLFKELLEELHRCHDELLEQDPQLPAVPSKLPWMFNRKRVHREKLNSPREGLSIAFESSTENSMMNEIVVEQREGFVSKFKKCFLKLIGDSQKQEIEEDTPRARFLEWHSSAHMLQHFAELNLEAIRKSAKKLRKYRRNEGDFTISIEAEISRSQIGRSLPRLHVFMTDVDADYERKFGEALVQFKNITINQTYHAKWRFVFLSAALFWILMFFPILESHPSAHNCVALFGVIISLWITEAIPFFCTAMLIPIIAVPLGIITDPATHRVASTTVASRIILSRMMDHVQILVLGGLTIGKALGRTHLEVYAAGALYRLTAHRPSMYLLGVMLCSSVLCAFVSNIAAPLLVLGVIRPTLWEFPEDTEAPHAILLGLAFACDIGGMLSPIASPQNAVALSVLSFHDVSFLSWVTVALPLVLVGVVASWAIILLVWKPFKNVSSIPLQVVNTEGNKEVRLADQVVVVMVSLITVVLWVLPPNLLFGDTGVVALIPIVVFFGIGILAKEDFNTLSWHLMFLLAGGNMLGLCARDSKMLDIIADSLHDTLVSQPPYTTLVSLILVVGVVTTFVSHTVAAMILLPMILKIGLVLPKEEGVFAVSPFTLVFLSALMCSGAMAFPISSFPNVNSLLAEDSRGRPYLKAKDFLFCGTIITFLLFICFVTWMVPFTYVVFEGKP

inward current amplitude at 10 mM (Pho91p; activator, 10 mM Na+/PPi): 447.8 ± 84.1 nA
Structure (SMILES): O=P(O)(O)OP(=O)(O)O [PPi]

inward current amplitude at 10 mM (Pho91p; 10 mM Na+/Pi, Na+ co-transported): 146.8 ± 41.6 nA
Structure (SMILES): O=P(O)(O)O [Pi]

Structure (SMILES): O=P(O)(O)OP(=O)(O)OP(=O)(O)O [polyP3]
inward current amplitude at 10 mM (Pho91p; activator, 10 mM Na+/polyP3): 771.6 ± 168.4 nA
threshold for significant amplification of Na+/Pi current (TbPho91): 200 µM
